For assay [1], the system named is 4T1.2 mouse mammary tumor cells. As to the kind of experiment: Tumor selectivity from MTT-based viability (tumor vs non-tumor cells). Format: cell-based. From the text: (§1) Variations in tumor selectivity among the predicted tumor-suppressing proteins. Tumor-suppressing proteins may inhibit the progression of tumor cells but not inhibit the progression of non-tumor cells. Using the MTT-based viability, tumor selectivity was defined as a ratio of (reduction in MTT-based viability of tumor cells) to (reduction in MTT-based viability of non-tumor cells). The tumor selectivity may be above one to remove tumor cells and a larger value may signify a reduction in the inhibition of the growth of non-tumor cells. The tumor selectivity was determined using three tumor cells (4T1.2 mouse mammary tumor cells, EO771 mammary tumor cells, and MDA-MB-231 breast cancer cells) and three non-tumor cells (adipose cells, MLO-A5 osteocytes, and murine MSCs). […] Table 2 provides the tumor selectivity of 4T1.2 Oct4 CM, 4T1.2 c-Myc CM, and 10 tumor-suppressing protein candidates.

Assay [2] deals with EO771 mammary tumor cells. Described as above. Particulars: tumor cells EO. The assay is classed as cell-based, mouse.
Source text: as §1

Assay [3] deals with MDA-MB-231 breast cancer cells. The description is as above. The assay is classed as cell-based, human.
Source text: as §1

The subject of assay [4] is EO771 mammary tumor cells. As to the kind of experiment: TRANSWELL invasion assay. Format: cell-based, mouse. The following applies: inhibitor applied with iTS CM. The method, then:
Invasion assay. The invasion capacity of cancer cells was determined using a 24-well plate, TRANSWELL® chambers (Thermo Fisher Scientific, Waltham, MA, USA) with […] pore size and MATRIGEL™. Cell invasion was measured in TRANSWELL® chambers with a coating including MATRIGEL™ (100 μg/ml). The cells in 200 μL serum-free DMEM were placed on the upper chamber and 800 μL iTS CM was added in the lower chamber. After 24 h, the cells that had invaded the lower side of the membrane were stained with Crystal Violet. At least five randomly chosen images were taken under a microscope, and the average number of stained cells that represented the relative invasion was determined.

In assay [5] the test system is EO771 mammary tumor cells. As to the kind of experiment: Wound-healing scratch assay. The assay is classed as cell-based, mouse. The following applies: inhibitor applied with iTS CM. The method, then: Two-dimensional motility assay. A wound-healing scratch motility assay was performed to measure 2-dimensional cell motility. Cells were seeded in 12-well plates, after cell attachment, a plastic pipette tip was used to scratch a gap on the cell layer. Images of the cell-free scratch zone were obtained via an inverted microscope at 0 h, and the areas newly occupied with cells were determined 48 h after scratching. The areas were quantified with Image J (National Institutes of Health, Maryland, USA).
Scratch assay. A wound-healing scratch assay was conducted to evaluate 2-dimensional migratory behavior. Approximately 4×10^5 cells were seeded in 12-well plates. After cell attachment, a plastic pipette tip was used to scratch a gap on the cell layer. After the removal of the floating cells, CM was added. Images of the cell-free scratch zone were collected at 0 h, and the areas newly occupied with cells were determined 24-48 h after scratching. The areas were quantified with IMAGE J™ (National Institutes of Health, Bethesda, MD, USA).

The subject of assay [6] is EO771 cells. As to the kind of experiment: Western blot analysis. The assay is classed as cell-based, mouse. The method, then: Western blot analysis. Cultured cells were lysed in a radio-immunoprecipitation assay buffer with protease inhibitors (Santa Cruz Biotechnology, Santa Cruz, CA, USA) and phosphatase inhibitors (Calbiochem, Billerica, MA, USA). After cell lysis, proteins were fractionated by 10-15% SDS gels and electro-transferred to polyvinylidene difluoride (“PVDF”) transfer membranes (Millipore, Billerica, MA, USA). After blocking 1 h with a blocking buffer (Bio-Rad), the membrane was incubated overnight with primary antibodies and then with secondary antibodies conjugated with horseradish peroxidase for 45 min (Cell Signaling, Danvers, MA, USA). Antibodies against β-catenin, cleaved-caspase 3, Runx2, Snail, Enolase-1 (Cell Signaling, Danvers, MA, USA), MMP9 (Santa Cruz, Dallas, TX, USA), TRAIL (Novus, Centennial, CO, USA), p53 (Invitrogen, Carlsbad, CA, USA), and β-actin as a control (Sigma, St. Louis, MO, USA), were employed. The level of proteins was determined using a SUPERSIGNAL™ west femto maximum sensitivity substrate (Thermo Scientific, Waltham, MA, USA), and a luminescent image analyzer (LAS-3000, Fuji Film, Tokyo, Japan) was used to quantify signal intensities.
(In western blotting, separated proteins are transferred to a membrane and probed.)

On to “Myh9: recombinant protein, tumor-suppressing protein candidate”, for which the Tumor selectivity in assay [1] (non-tumor cells A5) is 0.25; in assay [1] (non-tumor cells Adipose), 0.48; in assay [1] (non-tumor cells MSC) it was 0.70; in assay [2] (non-tumor cells A5) it was 0.32; in assay [2] (non-tumor cells Adipose), 0.64; in assay [2] (non-tumor cells MSC), 0.93. The Tumor selectivity is on record as 0.23 in assay [3] (non-tumor cells A5), 0.46 in assay [3] (non-tumor cells Adipose) and 0.66 in assay [3] (non-tumor cells MSC).
Take “Flna: recombinant protein, tumor-suppressing protein candidate”: the Tumor selectivity worked out at 1.43 in assay [1] (non-tumor cells A5); 1.19 in assay [1] (non-tumor cells Adipose); 1.05 in assay [1] (non-tumor cells MSC); 1.97 in assay [2] (non-tumor cells A5); 1.64 in assay [2] (non-tumor cells Adipose); 1.45 in assay [2] (non-tumor cells MSC). Besides, the Tumor selectivity is recorded as 1.54 in assay [3] (non-tumor cells A5), 1.28 in assay [3] (non-tumor cells Adipose) and 1.13 in assay [3] (non-tumor cells MSC).
Take `NCCOCCOCCNC(=O)Cc1ccc(Nc2nc(NCc3ccc(F)cc3)nc(NCC3CCCCC3)n2)cc1` [AP-III-a4, reference compound]: the “inhibitory effect of β-catenin-overexpressing iTS CM on invasion” value in assay [4] was “suppressed the inhibitory effect”. The “inhibitory effect of β-catenin-overexpressing iTS CM on migration” value in assay [5] was “suppressed the inhibitory effect”.
Regarding “Plec: recombinant protein, tumor-suppressing protein candidate”, the Tumor selectivity in assay [1] (non-tumor cells A5) is reported as 1.33; in assay [1] (non-tumor cells Adipose) it was 1.28; in assay [1] (non-tumor cells MSC), 1.06; in assay [2] (non-tumor cells A5), 1.95; in assay [2] (non-tumor cells Adipose), 1.86; in assay [2] (non-tumor cells MSC), 1.54. Besides, the Tumor selectivity in assay [3] (non-tumor cells A5) amounted to 1.16; in assay [3] (non-tumor cells Adipose), 1.10; in assay [3] (non-tumor cells MSC), 0.91.

B1: TRAIL: an apoptosis-inducing factor applied to EO771 tumor cells (protein, UniProt P50592 1-291, looked up)
Tumor necrosis factor ligand …: MPSSGALKDLSFSQHFRMMVICIVLLQVLLQAVSVAVTYMYFTNEMKQLQDNYSKIGLACFSKTDEDFWDSTDGEILNRPCLQVKRQLYQLIEEVTLRTFQDTISTVPEKQLSTPPLPRGGRPQKVAAHITGITRRSNSALIPISKDGKTLGQKIESWESSRKGHSFLNHVLFRNGELVIEQEGLYYIYSQTYFRFQEAEDASKMVSKDKVRTKQLVQYIYKYTSYPDPIVLMKSARNSCWSRDAEYGLYSIYQGGLFELKKNDRIFVSVTNEHLMDLDQEASFFGAFLIN
Regarding B1, the “level of cleaved caspase 3” value in assay [6] is listed as “increased”.

B2: Eef1a1: recombinant protein, tumor-suppressing protein candidate (protein, UniProt P10126 2-462, looked up)
Elongation factor 1-alpha 1: GKEKTHINIVVIGHVDSGKSTTTGHLIYKCGGIDKRTIEKFEKEAAEMGKGSFKYAWVLDKLKAERERGITIDISLWKFETSKYYVTIIDAPGHRDFIKNMITGTSQADCAVLIVAAGVGEFEAGISKNGQTREHALLAYTLGVKQLIVGVNKMDSTEPPYSQKRYEEIVKEVSTYIKKIGYNPDTVAFVPISGWNGDNMLEPSANMPWFKGWKVTRKDGSASGTTLLEALDCILPPTRPTDKPLRLPLQDVYKIGGIGTVPVGRVETGVLKPGMVVTFAPVNVTTEVKSVEMHHEALSEALPGDNVGFNVKNVSVKDVRRGNVAGDSKNDPPMEAAGFTAQVIILNHPGQISAGYAPVLDCHTAHIACKFAELKEKIDRRSGKKLEDGPKFLKSGDAAIVDMVPGKPMCVESFSDYPPLGRFAVRDMRQTVAVGVIKAVDKKAAGAGKVTKSAQKAQKAK
As to B2, the Tumor selectivity in assay [1] (non-tumor cells A5) is 1.23; in assay [1] (non-tumor cells Adipose), 0.74; in assay [1] (non-tumor cells MSC), 1.34; in assay [2] (non-tumor cells A5), 0.96; in assay [2] (non-tumor cells Adipose), 0.58; in assay [2] (non-tumor cells MSC) it was 1.05. Moreover, the Tumor selectivity in assay [3] (non-tumor cells A5) was found to be 0.86; in assay [3] (non-tumor cells Adipose), 0.52; in assay [3] (non-tumor cells MSC), 0.94.

B3: Aldoa: recombinant protein, tumor-suppressing protein candidate (protein, UniProt P05064 2-364, looked up)
Fructose-bisphosphate …: PHPYPALTPEQKKELSDIAHRIVAPGKGILAADESTGSIAKRLQSIGTENTEENRRFYRQLLLTADDRVNPCIGGVILFHETLYQKADDGRPFPQVIKSKGGVVGIKVDKGVVPLAGTNGETTTQGLDGLSERCAQYKKDGADFAKWRCVLKIGEHTPSALAIMENANVLARYASICQQNGIVPIVEPEILPDGDHDLKRCQYVTEKVLAAVYKALSDHHVYLEGTLLKPNMVTPGHACTQKFSNEEIAMATVTALRRTVPPAVTGVTFLSGGQSEEEASINLNAINKCPLLKPWALTFSYGRALQASALKAWGGKKENLKAAQEEYIKRALANSLACQGKYTPSGQSGAAASESLFISNHAY
Take B3: the Tumor selectivity in assay [1] (non-tumor cells A5) came to 2.72; in assay [1] (non-tumor cells Adipose), 3.06; in assay [1] (non-tumor cells MSC), 1.39; in assay [2] (non-tumor cells A5), 1.87; in assay [2] (non-tumor cells Adipose) it was 2.10; in assay [2] (non-tumor cells MSC), 0.96. Also, the Tumor selectivity in assay [3] (non-tumor cells A5) worked out at 1.75; in assay [3] (non-tumor cells Adipose), 1.97; in assay [3] (non-tumor cells MSC), 0.90.

The values above are taken from patent US20240082313A1, “PHARMACEUTICAL COMPOSITIONS AND THEIR METHODS OF USE” (The Trustees of Indiana University, priority 2021, published 2024).
